From ChEMBL document CHEMBL1201862, “PubChem BioAssay data set” (2004)
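Protocol summary: plate cells (96-well), add compound at 5 concentrations, incubate 48 h, interpolate endpoints linearly. At the GI50, growth is halved.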 Active and inactive are the calls of the source. Rule as the data show it: active = GI50 up to about 1.1 µM and inactive = higher.

How the values were obtained:
Experiment in all cases: NCI tumour cell line growth inhibition, 48 h
XF498 = test system: XF498
DMS-114 = test system: DMS-114
M19-MEL = test system: M19-MEL
LXFL 529 = test system: LXFL 529
HOP-18 = test system: HOP-18
RXF 631 = test system: RXF 631
DLD-1 = test system: DLD-1
DMS-273 = test system: DMS-273
SNB-78 = test system: SNB-78

Row | Compound | GI50 (XF498) | GI50 (DMS-114) | GI50 (M19-MEL) | GI50 (LXFL 529) | GI50 (HOP-18) | GI50 (RXF 631) | GI50 (DLD-1) | GI50 (DMS-273) | GI50 (SNB-78)
1 | CC(=O)OC(C)(C)/C=C/C(=O)[C@](C)(O)[C@H]1[C@H](O)C[C@@]2(C)[C@@H]3CC=C4[C@@H](C[C@H](O)[C@H](O)C4(C)C)[C@]3(C)C(=O)C[C@]12C | 0.422 µM (active) | 0.324 µM (active) | 0.515 µM (active) | 0.347 µM (active) | 1.05 µM (active) | 0.679 µM (active) | 0.274 µM (active) | 0.421 µM (active) | 0.453 µM (active)
2 | C/C(O)=C1\CC2CN3CCc4c([nH]c5ccccc45)C3CC2CC1=O (stereo not drawn) | 32 µM (inactive) | 46.2 µM (inactive) | – | 34.4 µM (inactive) | 52.8 µM (inactive) | – | 40.6 µM (inactive) | 57.4 µM (inactive) | 32.9 µM (inactive)
3 | CC(C)(C)N/N=C(\C(=O)Nc1nnc(S)[nH]1)C1C(=O)Nc2ccccc2[S+]1[O-] (stereo not drawn) | > 100 µM (inactive) | > 100 µM (inactive) | > 100 µM (inactive) | > 100 µM (inactive) | > 100 µM (inactive) | > 100 µM (inactive) | > 100 µM (inactive) | > 100 µM (inactive) | > 100 µM (inactive)
4 | N#C/N=C1\NC(Cc2ccccc2)C(=O)N1CCc1c[nH]c2ccccc12 (stereo not drawn) | 27.4 µM (inactive) | 29.3 µM (inactive) | 30.1 µM (inactive) | 30.1 µM (inactive) | – | – | 33.9 µM (inactive) | 27.7 µM (inactive) | 21.8 µM (inactive)
5 | O=C(NC(=O)c1cc2cc(Br)cc(Br)c2oc1=O)Oc1ccccc1 | 37.4 µM (inactive) | 65.2 µM (inactive) | > 100 µM (inactive) | > 100 µM (inactive) | > 100 µM (inactive) | – | > 100 µM (inactive) | > 100 µM (inactive) | > 100 µM (inactive)
6 | Cc1cc(C)nc(NS(=O)(=O)c2ccc(NC(=O)c3cccc4c(Nc5ccc(S(=O)(=O)N=C(N)N)cc5)c5ccc(Cl)cc5nc34)cc2)n1 | > 100 µM (inactive) | 45.7 µM (inactive) | 53.7 µM (inactive) | 27.6 µM (inactive) | – | 28.6 µM (inactive) | 17.7 µM (inactive) | – | 40.6 µM (inactive)
7 | COc1ccc(C2S/C(=C\c3ccccc3)C(=O)N2NC(=O)Cc2ccccc2)cc1 (stereo not drawn) | – | – | > 100 µM (inactive) | > 100 µM (inactive) | > 100 µM (inactive) | – | > 100 µM (inactive) | > 100 µM (inactive) | –
8 | Cc1cccc(C(C)(C)C)c1NC(=O)CC1C(=O)Nc2ccccc2S1(=O)=O (stereo not drawn) | 11.1 µM (inactive) | – | 12.4 µM (inactive) | 12 µM (inactive) | – | – | 5.5 µM (inactive) | 4.25 µM (inactive) | 8.24 µM (inactive)
9 | COC(=O)[C@H]1COC(=S)N1C(=O)[C@@H](C)[C@H](O)C(C)C | > 100 µM (inactive) | 84.7 µM (inactive) | > 100 µM (inactive) | > 100 µM (inactive) | > 100 µM (inactive) | > 100 µM (inactive) | > 100 µM (inactive) | > 100 µM (inactive) | > 100 µM (inactive)
10 | O=C(CCc1nnc(S)[nH]1)Nc1cc(Cl)ccc1Cl | – | > 100 µM (inactive) | > 100 µM (inactive) | > 100 µM (inactive) | > 100 µM (inactive) | > 100 µM (inactive) | > 100 µM (inactive) | > 100 µM (inactive) | –
11 | COC(=O)C(C(=O)C(=O)Nc1ccc(N)cc1[N+](=O)[O-])c1nc2ccc(Cl)cc2nc1O (stereo not drawn) | 70.8 µM (inactive) | > 100 µM (inactive) | > 100 µM (inactive) | – | 72.3 µM (inactive) | – | > 100 µM (inactive) | > 100 µM (inactive) | > 100 µM (inactive)
12 | O=C(CC1Sc2ccccc2NC1=O)Nc1cc(Cl)ccc1Cl (stereo not drawn) | – | > 100 µM (inactive) | > 100 µM (inactive) | > 100 µM (inactive) | – | > 100 µM (inactive) | > 100 µM (inactive) | > 100 µM (inactive) | > 100 µM (inactive)
13 | COC(=O)C(c1n[nH]c2ccccc12)C(C(=O)OC)c1n[nH]c2ccccc12 (stereo not drawn) | 41.8 µM (inactive) | 29.4 µM (inactive) | > 100 µM (inactive) | 26.2 µM (inactive) | 59.2 µM (inactive) | > 100 µM (inactive) | 36.3 µM (inactive) | – | 38.1 µM (inactive)
14 | Nc1ccc(C(c2ccccc2)(c2ccccc2)c2ccccc2)cc1 | 4.24 µM (inactive) | 64 µM (inactive) | 55.8 µM (inactive) | 37.1 µM (inactive) | – | 47 µM (inactive) | 95.9 µM (inactive) | 50.1 µM (inactive) | 34.4 µM (inactive)
15 | COc1ccc(C2C(Cl)C(=O)N2NC(=O)c2ccc(NC(C)=O)cc2)cc1 (stereo not drawn) | > 100 µM (inactive) | – | > 100 µM (inactive) | > 100 µM (inactive) | – | – | > 100 µM (inactive) | > 100 µM (inactive) | > 100 µM (inactive)
16 | O=C1c2ccccc2-c2ccccc2C(=O)C1(Br)Br | – | 15.2 µM (inactive) | 8.69 µM (inactive) | 7.96 µM (inactive) | 13.4 µM (inactive) | – | 6.75 µM (inactive) | 15.6 µM (inactive) | 8.11 µM (inactive)
17 | Cc1c(C(=O)CC(=O)C(=O)Nc2ccc(Cl)cc2)[n+]([O-])c2ccccc2[n+]1[O-] | > 100 µM (inactive) | > 100 µM (inactive) | > 100 µM (inactive) | > 100 µM (inactive) | 75 µM (inactive) | – | > 100 µM (inactive) | > 100 µM (inactive) | > 100 µM (inactive)
18 | ClCCNCCNCCCl.ClCCNCCNCCCl.[O-][Cl+3]([O-])([O-])O | – | 23.9 µM (inactive) | 27.2 µM (inactive) | 17.2 µM (inactive) | 24.3 µM (inactive) | – | 18.5 µM (inactive) | 27.5 µM (inactive) | 44.6 µM (inactive)
19 | COc1ccc2c(c1)CN1CCc3c(cc(OC)c(OC)c3OC)C1C2 (stereo not drawn) | 38.7 µM (inactive) | 58.5 µM (inactive) | > 100 µM (inactive) | 39.4 µM (inactive) | > 100 µM (inactive) | – | > 100 µM (inactive) | > 100 µM (inactive) | > 100 µM (inactive)
20 | Cc1nc(N)nc(N)c1-c1ccc(Cl)c(Cl)c1 [METOPRINE] | 34.8 µM (inactive) | 0.149 µM (active) | 2.36 µM (inactive) | 0.404 µM (active) | 25.8 µM (inactive) | – | 0.427 µM (active) | 0.157 µM (active) | 26.3 µM (inactive)
